We go through two compounds from patent publication US20080045494A1, “Pyridine Analogues VI” (ASTRAZENECA AB, priority 2006, published 2008).

The target of this assay is T1, P2Y12 receptor (Homo sapiens, UniProt Q9H244).
T1 construct: expressed in transfected cells; host or cells: CHO cells (membranes)
Put plainly: Functional inhibition of 2-Me-S-ADP induced P2Y12 signalling (35S-GTPγS, membranes from P2Y12 transfected CHO-cells). It counts as biochemical. Conditions: EC80 concentration of agonist 2-methyl-thio-adenosine diphosphate; 30° C., 45 min. As for the experimental part:
Functional inhibition of the P2Y12 receptor can be measured by in vitro assays using cell membranes from P2Y12 transfected CHO-cells, the methodology is indicated below.
Functional inhibition of 2-Me—S-ADP induced P2Y12 signalling: 5 μg of membranes were diluted in 200 μl of 200 mM NaCl, 1 mM MgCl2, 50 mM HEPES (pH 7.4), 0.01% BSA, 30 μg/ml saponin and 10 μM GDP. To this was added an EC80 concentration of agonist (2-methyl-thio-adenosine diphosphate), the required concentration of test compound and 0.1 μCi ^35S-GTPγS. The reaction was allowed to proceed at 30° C. for 45 min. Samples were then transferred on to GF/B filters using a cell harvester and washed with wash buffer (50 mM Tris (pH 7.4), 5 mM MgCl2, 50 mM NaCl). Filters were then covered with scintillant and counted for the amount of ^35S-GTPγS retained by the filter. Maximum activity was that determined in the presence of the agonist and minimum activity in the absence of the agonist following subtraction of the value determined for non-specific activity. The effect of compounds at various concentrations was plotted according to the equation: […]
y=A+((B−A)/(1+((C/x)̂D)))
A is the bottom plateau of the curve i.e. the final minimum y value
B is the top of the plateau of the curve i.e. the final maximum y value
C is the x value at the middle of the curve. This represents the log EC50 value when A+B=100 […]

T1 sequence (Q9H244 whole entry): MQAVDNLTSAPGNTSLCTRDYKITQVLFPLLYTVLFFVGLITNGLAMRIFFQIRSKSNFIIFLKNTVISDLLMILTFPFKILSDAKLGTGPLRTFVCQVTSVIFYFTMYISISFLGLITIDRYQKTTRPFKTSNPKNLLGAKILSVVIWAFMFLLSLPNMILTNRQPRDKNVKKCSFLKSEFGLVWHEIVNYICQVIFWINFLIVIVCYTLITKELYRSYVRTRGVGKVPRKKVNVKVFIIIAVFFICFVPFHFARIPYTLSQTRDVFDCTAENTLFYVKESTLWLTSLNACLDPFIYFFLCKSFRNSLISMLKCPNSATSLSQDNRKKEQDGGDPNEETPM

The compound `CCOC(=O)c1cc(C#N)c(NCC(=O)NS(=O)(=O)CCc2ccccc2)nc1C(F)(F)F` [Example 6, Ethyl 5-cyano-6-[(2-oxo-2-{[(2-phenylethyl)sulfonyl]amino}ethyl)amino]-2-(trifluoromethyl)nicotinate] yielded an IC50 of 240 nM. On to “Ethyl 6-{[3-({[(5-chloro-2-thienyl)sulfonyl]amino}carbonyl)cyclopentyl]amino}-5-cyano-1-(trifluoromethyl)nicotinate [Example 3]”, for which the IC50 is 810 nM.

For orientation: IC50 means the concentration that inhibits the measured activity by half. High values mean a need for much substance, low ones inhibition by little substance.
